Earlier results, collected in US8815261B2 (priority 2009, dated 2014).
Read-outs that look alike come from different tables or passages of the source.

CC(=O)CCC(=O)O [levulinic acid]
logP calculated value of organic acid (PubChem value (revised on February, 2009)): −0.5

O=S(=O)(O)c1ccccc1 [benzenesulfonic acid]
logP calculated value of organic acid (PubChem value, as in Example 2 (Table 4)): 0
